Columns and labels:
[1] = biological target: T1, rat metabotropic glutamate receptor 5 (mGluR5) (Rattus norvegicus, UniProt P31424); assay: Calcium mobilization assay (FLIPR) for negative or positive allosteric activity, HEK 293 cells; format: cell-based; details: HEK293, negative allosteric modulation, inhibition of EC80 glutamate response; read-out: FLIPR maximum inhibition
T1 construct: expressed in transfected cells; host or cells: HEK 293
Method in brief: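 Peak Fluo-4 calcium signal over 3 min at room temperature, minus basal, fitted by Hill equation, in stable rat mGluR5 HEK 293 cells (HBSS/HEPES pH 7.4, BSA, probenecid). Inhibition scored against EC80 glutamate, potentiation against EC20 glutamate, glutamate given with compound.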

mGluR5 = mGluR5 (Homo sapiens, UniProt P41594); assay: Radioligand binding assay, [3H]MPEP filtration binding to membrane homogenates; details: 5 nM [3H]MPEP; Ki calculated from IC50 by Cheng-Prusoff
Description: Binding assays were performed as described in [J. A. O'Brien et al. Mol. Pharmacol., 2003, 64, 731-740] with slight modifications. Briefly, after thawing, the membrane homogenates were resuspended in 50 mM Tris-HCl, 0.9% NaCl binding buffer at pH 7.4 to a final assay concentration of 40 μg protein/well for [^3H]methoxy-5-(2-pyridinylethynyl)pyridine ([^3H] MPEP) (American Radiolabeled Chemicals, Inc., St. Louis, Mo.) filtration binding. Incubations included 5 nM [^3H] MPEP, membranes and either buffer or varying concentrations of compound. Samples were incubated for 60 min at room temperature with shaking. Non-specific binding was defined with 10 μM MPEP. After incubation, samples were filtered over a GF/C filter (presoaked in 0.25% polyethyleneimine (PEI)) and then washed 4 times using a Tomtec® Harvester 96® Mach III cell harvester (Tomtec, Hamden, Conn.) with 0.5 mL ice-cold 50 mM Tris-HCl (pH 7.4).
IC50 values were derived from the inhibition curve and Ki values were calculated according to the Cheng and Prusoff equation of Ki=IC50/(1+[L]/Kd) described in [Y. Cheng and W. H. Prusoff Biochem. Pharmacol. 1973, 22, 3099-3108] where [L] is the concentration of radioligand and Kd is its dissociation constant at the receptor, derived from the saturation isotherm.

adult, male CD1 mice = assay: Mouse marble burying (mMB) assay, anxiolytic effect; format: in vivo; details: for mMB EDmin: SC given for Example 58
Description: (§1) Examples 1, 2 and 58 were evaluated in vivo for anxiolytic effects using (1) mouse marble burying (mMB) methods similar to those described in [K. Njung'e, K. and S. L. Handley, Pharmacology, Biochemistry and Behavior, 1991, 38, 63-67] and (2) a modified Geller-Seifter conflict test described in [N. A. Moore et al. Behavioural Pharmacology. 1994, 5, 196-202].
More specifically for the mMB testing, adult, male CD1 mice (Charles River Laboratories (Kingston, N.Y.)), weighing 25 to 30 g, were used. All animals were group-housed in a standard colony room with a 12:12 light/dark cycle (lights on at 6:00 am) for at least one week prior to testing. Food and water were provided ad libitum. Animals were weighed, tail marked, and randomly assigned to treatment groups before testing.
For each test, sixty minutes after the injection of vehicle or test compound, or 30 min after injection of the positive control, buspirone, mice were individually placed into test cages containing 1.5 in of Aspen bedding (PWI brand) and two rows of 10 marbles (20 marbles per test cage total). Filter tops were used to cover each test cage. Thirty minutes later, mice were removed from test cages and returned to their home cages. The number of fully visible marbles (less than ⅔ covered with bedding) were counted and subtracted from 20 to arrive at the number of marbles buried. Twelve mice were tested per group.
Testing included multiple tests with each test performed to evaluate buspirone hydrochloride (BUS; Sigma Aldrich) (positive control) and/or a compound of the present invention. Each compound was dissolved immediately prior to testing in 20% beta-cyclodextrin (compound of the present invention) or distilled water (BUS) and administered at one or more doses (such as 3, 10, and/or 30 mg/kg) via subcutaneous (SC) or intraperitoneal (IP) injection at the indicated pretreatment times (i.e., 30, 60, or 120 min pretreatment). Doses were measured in mg drug (salt form) per kg body weight. Data was analyzed using one-way ANOVA with post-hoc Dunnett's test.

[2] = tested on: adult, male Sprague-Dawley rats; assay: Modified Geller-Seifter conflict test, anxiolytic effect; format: in vivo, rat; details: for Statistically significant Active dose(s): oral, Geller-Seifter assay, ANOVA with Dunnett's test or t-test; for Geller-Seifter EDmin: rat conflict test, PO for Example 58
Description: as §1
More specifically for the Geller-Seifter Conflict testing, rodent operant chambers (ENV-007CT, Med Associates Inc. (Georgia, Vt.)) and sound-attenuating chambers (ENV-018MD, Med Associates Inc.) were used. Each chamber was equipped with a house light, cue lights, grid floor to deliver foot shocks via a programmable shocker, (ENV-414, Med Associates, Inc.) and food hopper. Two levers were located on either side of the food hopper, Rats were trained to only respond on the left lever. Food reinforcement was used (Dustless Precision Pellets, 45 mg, BioServ, (Frenchtown, N.J.)). MED-PCIV software (Med Associates) was used to run experimental sessions and collect data.
Prior to beginning the Conflict procedure, animals were initially trained to lever press on fixed ratio schedules (FR 1, 2, 5, and 10). Once animals obtained 25 rewards on a FR 10 schedule for 2 consecutive days, animals began training on a three component Conflict schedule. […] These three components were repeated twice in the same order during the daily 30 minute session.
Animals were tested using a Latin-squares design, on Wednesdays and Fridays. Animals served as their own controls and received all treatments. To maintain baseline performance, animals were also trained the remaining three weekdays.
Testing was performed using 12 adult, male Sprague-Dawley rats, weighing 426-567 g (Charles River Laboratories (Kingston, N.Y.)). Animals were pair-housed in colony rooms maintained at controlled temperature (68-72° F.) and a 12-h light/dark cycle (lights on 06:00). Animals were given free access to water, while food was limited to 15 g of Bacon Lover's Treats (BioServ) after training/testing Monday through Thursday. Friday through Sunday, animals had free access to Lab Diet 5012 Rat Diet (PMI Nutrition International, LLC, Brentwood, Mo.) until cages were changed and food removed on Sunday.
Testing included multiple tests where each test was performed to evaluate either a reference compound or a compound of the present invention. Reference anxiolytics included chlordiazepoxide, diazepam and buspirone, which were dissolved in saline or water and administered via SC, IP, and/or PO, Test compounds were dissolved in 20% beta-cyclodextrin, and the pH was adjusted to 7 with NaHCO3. For each test, the compound to be evaluated was tested at one or more doses (such as 10, 20, 30 and/or 50 mg/kg) via p.o. administration 60 minutes before the test using an injection volume of 2 mL/kg in comparison with a vehicle control group. Doses were measured in mg drug (salt form) per kg body weight. Data was analyzed using Repeated Measures ANOVA with post-hoc Dunnett's test.

Chain of mGluR5 (P41594 21-1212): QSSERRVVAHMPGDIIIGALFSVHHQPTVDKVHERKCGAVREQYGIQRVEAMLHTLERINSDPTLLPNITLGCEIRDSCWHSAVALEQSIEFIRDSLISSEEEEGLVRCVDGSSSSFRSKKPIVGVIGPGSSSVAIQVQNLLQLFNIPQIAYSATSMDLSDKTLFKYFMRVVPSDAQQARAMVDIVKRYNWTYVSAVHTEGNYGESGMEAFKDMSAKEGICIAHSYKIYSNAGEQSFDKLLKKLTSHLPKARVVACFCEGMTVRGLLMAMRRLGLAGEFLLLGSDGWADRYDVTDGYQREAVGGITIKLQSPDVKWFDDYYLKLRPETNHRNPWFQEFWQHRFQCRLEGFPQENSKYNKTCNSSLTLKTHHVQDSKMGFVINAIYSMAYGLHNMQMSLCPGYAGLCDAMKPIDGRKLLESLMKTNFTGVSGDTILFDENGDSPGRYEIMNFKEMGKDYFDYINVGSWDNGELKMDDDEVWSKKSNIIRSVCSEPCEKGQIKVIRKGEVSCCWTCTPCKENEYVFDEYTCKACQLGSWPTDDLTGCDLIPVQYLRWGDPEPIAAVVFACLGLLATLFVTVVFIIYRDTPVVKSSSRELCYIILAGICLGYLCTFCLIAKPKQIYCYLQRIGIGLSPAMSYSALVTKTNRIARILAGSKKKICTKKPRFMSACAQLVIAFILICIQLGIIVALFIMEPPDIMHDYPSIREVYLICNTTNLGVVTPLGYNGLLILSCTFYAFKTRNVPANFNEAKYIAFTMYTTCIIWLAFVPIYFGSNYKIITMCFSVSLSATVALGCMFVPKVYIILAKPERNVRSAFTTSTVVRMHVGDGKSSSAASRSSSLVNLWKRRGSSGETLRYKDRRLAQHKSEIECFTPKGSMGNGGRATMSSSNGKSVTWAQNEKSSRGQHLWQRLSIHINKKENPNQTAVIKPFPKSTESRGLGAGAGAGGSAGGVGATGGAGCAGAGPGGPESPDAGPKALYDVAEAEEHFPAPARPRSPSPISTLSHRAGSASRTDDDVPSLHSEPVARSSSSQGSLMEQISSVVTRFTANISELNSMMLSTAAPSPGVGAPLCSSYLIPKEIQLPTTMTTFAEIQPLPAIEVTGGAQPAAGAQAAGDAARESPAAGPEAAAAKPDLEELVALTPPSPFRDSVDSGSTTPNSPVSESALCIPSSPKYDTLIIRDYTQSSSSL
T1 sequence (P31424 21-1171 isoform P31424-2 limits assumed): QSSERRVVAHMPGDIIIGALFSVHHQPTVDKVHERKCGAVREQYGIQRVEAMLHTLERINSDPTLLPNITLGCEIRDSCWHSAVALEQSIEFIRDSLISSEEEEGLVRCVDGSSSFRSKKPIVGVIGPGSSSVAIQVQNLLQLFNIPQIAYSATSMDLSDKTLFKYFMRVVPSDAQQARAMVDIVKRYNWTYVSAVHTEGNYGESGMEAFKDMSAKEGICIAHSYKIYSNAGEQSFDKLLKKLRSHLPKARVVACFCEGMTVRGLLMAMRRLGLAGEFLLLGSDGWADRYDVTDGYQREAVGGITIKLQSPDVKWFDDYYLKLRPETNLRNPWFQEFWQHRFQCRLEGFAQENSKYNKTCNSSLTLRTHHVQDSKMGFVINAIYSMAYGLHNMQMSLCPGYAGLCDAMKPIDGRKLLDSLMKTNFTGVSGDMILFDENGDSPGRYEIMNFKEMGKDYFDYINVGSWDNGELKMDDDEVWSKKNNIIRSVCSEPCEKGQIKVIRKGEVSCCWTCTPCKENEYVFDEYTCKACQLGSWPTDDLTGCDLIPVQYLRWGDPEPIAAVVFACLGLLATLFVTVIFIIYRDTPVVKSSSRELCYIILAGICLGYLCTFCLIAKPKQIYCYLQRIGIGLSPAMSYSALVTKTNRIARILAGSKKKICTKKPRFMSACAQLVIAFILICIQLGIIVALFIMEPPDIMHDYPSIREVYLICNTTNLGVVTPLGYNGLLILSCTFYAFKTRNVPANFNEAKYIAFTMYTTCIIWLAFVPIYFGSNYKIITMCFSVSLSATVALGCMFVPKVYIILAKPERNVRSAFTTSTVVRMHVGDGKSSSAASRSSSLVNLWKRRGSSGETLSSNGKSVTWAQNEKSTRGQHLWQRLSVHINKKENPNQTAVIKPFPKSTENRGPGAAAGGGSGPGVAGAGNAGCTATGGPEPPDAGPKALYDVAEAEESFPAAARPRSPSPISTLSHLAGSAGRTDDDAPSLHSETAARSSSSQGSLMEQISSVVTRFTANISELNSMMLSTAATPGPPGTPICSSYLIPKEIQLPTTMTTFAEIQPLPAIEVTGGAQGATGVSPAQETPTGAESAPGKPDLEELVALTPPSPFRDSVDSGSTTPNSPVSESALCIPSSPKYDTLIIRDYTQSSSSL

Compound | Emax [1] | Ki (mGluR5) | mMB EDmin (adult, male CD1 mice) | Statistically significant Active dose(s) [2] | Geller-Seifter EDmin [2] | minimal effective dose (adult, male CD1 mice; SC injection, one-way ANOVA with Dunnett's test or t-test, read-out: Statistically significant Active Dose)
Cc1cccc(C(=O)NC23CC4CC(C2)CC(NC(=O)c2cccc(C)n2)(C4)C3)n1 [Example 1, N,N′-(1,3-adamantylene)bis(6-methyl-pyridine-2-carboxamaide)] | 90 to 99% | 6.7 nM | 3 mg/kg | 50 mg/kg | 10 mg/kg | –
O=C(NC12CC3CC(C1)CC(NC(=O)c1ccccn1)(C3)C2)c1ccccn1 [Example 2, N,N′-(1,3-adamantylene)bis(2-pyridinecarboxamide)] | 90 to 99% | 40 nM | 30 mg/kg | 20 mg/kg | 20 mg/kg | 30 mg/kg
Cc1cccc(C(=O)NC23CC4CC(CC(NC(=O)c5cnccn5)(C4)C2)C3)n1 [Example 41, Pyrazine-2-carboxylic acid {3-[(6-methyl-pyridine-2-carbonyl)-amino]-adamantan-1-yl}-amide] | 63 to 99% | – | – | 30 mg/kg | – | –
Cc1cncc(C(=O)NC23CC4CC(CC(NC(=O)c5ccccn5)(C4)C2)C3)n1 [Example 58, 6-Methyl-pyrazine-2-carboxylic acid {3-[(pyridine-2-carbonyl)-amino]-adamantan-1-yl}-amide] | 63 to 99% | 6 to 700 nM | 10 mg/kg | – | 10 mg/kg | –
Cc1cnc(C(=O)NC23CC4CC(CC(NC(=O)c5cccc(F)c5)(C4)C2)C3)cn1 [Example 94, 5-Methyl-pyrazine-2-carboxylic acid [3-(3-fluoro-benzoylamino)-adamantan-1-yl]-amide] | 63 to 99% | 6 to 700 nM | – | 20 mg/kg | – | –
